Source: article PMC6704710, “Preclinical evaluation of 3D185, a novel potent inhibitor of FGFR1/2/3 and CSF-1R, in FGFR-dependent and macrophage-dominant cancer models” (Journal of Experimental & Clinical Cancer Research : CR, 2019)

Columns and labels:
Assay in all cases: Eurofins kinase panel
Format in all cases: biochemical
Settings in all cases: read-out: Inhibition rate (%)
MEK1(h) = biological target: T1, MEK1(h) (Homo sapiens, UniProt Q02750)
T1 construct: purchased Eurofins (KinaseProfiler)

EGFR(T790M)(h) = biological target: T2, EGFR(T790M)(h) (Homo sapiens, UniProt P00533, T790M)
T2 construct: purchased Eurofins (KinaseProfiler)

PrKX(h) = biological target: T3, PrKX(h) (Homo sapiens, UniProt P51817)
T3 construct: purchased Eurofins (KinaseProfiler)
T3 sequence (P51817 1-358): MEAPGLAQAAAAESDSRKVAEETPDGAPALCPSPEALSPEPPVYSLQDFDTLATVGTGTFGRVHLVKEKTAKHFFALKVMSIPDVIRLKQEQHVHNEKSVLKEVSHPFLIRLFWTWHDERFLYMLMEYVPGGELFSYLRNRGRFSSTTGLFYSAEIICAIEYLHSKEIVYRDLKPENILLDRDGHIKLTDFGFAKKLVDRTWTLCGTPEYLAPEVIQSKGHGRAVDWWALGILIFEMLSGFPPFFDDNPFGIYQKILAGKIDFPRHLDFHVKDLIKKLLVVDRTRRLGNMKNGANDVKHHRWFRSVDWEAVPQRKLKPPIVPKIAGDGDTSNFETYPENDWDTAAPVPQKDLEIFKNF

PDGFRα(D842V)(h) = biological target: T4, PDGFRα(D842V)(h) (Homo sapiens, UniProt P16234, D842V)
T4 construct: purchased Eurofins (KinaseProfiler)

EphB4(h) = biological target: T5, EphB4(h) (Homo sapiens, UniProt P54760)
T5 construct: purchased Eurofins (KinaseProfiler)
T5 sequence (P54760 16-987): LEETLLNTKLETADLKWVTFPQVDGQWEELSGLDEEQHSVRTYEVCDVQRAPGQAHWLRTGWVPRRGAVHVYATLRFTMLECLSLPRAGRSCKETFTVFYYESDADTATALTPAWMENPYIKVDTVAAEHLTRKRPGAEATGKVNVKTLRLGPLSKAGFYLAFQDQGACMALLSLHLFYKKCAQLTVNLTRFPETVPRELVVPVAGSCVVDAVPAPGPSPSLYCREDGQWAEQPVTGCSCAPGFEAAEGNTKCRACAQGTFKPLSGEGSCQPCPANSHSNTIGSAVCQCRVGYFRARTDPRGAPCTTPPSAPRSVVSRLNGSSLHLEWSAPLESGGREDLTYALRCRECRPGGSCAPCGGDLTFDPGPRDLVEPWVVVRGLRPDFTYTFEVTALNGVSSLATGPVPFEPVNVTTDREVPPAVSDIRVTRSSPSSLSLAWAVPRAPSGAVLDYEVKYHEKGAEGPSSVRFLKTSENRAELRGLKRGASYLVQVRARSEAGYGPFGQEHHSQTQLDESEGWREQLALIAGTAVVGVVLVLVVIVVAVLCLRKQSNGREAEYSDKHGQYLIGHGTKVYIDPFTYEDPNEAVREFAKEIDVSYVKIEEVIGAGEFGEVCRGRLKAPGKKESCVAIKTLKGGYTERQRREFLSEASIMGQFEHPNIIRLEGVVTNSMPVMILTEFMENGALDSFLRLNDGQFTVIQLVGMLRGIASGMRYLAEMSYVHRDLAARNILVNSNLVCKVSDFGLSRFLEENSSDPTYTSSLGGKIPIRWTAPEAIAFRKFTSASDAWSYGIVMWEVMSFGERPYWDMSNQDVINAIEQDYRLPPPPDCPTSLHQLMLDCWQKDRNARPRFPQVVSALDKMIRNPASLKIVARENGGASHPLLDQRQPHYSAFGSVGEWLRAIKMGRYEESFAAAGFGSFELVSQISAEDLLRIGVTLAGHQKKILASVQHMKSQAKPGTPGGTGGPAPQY

T2 sequence (P00533 25-1210 T790M): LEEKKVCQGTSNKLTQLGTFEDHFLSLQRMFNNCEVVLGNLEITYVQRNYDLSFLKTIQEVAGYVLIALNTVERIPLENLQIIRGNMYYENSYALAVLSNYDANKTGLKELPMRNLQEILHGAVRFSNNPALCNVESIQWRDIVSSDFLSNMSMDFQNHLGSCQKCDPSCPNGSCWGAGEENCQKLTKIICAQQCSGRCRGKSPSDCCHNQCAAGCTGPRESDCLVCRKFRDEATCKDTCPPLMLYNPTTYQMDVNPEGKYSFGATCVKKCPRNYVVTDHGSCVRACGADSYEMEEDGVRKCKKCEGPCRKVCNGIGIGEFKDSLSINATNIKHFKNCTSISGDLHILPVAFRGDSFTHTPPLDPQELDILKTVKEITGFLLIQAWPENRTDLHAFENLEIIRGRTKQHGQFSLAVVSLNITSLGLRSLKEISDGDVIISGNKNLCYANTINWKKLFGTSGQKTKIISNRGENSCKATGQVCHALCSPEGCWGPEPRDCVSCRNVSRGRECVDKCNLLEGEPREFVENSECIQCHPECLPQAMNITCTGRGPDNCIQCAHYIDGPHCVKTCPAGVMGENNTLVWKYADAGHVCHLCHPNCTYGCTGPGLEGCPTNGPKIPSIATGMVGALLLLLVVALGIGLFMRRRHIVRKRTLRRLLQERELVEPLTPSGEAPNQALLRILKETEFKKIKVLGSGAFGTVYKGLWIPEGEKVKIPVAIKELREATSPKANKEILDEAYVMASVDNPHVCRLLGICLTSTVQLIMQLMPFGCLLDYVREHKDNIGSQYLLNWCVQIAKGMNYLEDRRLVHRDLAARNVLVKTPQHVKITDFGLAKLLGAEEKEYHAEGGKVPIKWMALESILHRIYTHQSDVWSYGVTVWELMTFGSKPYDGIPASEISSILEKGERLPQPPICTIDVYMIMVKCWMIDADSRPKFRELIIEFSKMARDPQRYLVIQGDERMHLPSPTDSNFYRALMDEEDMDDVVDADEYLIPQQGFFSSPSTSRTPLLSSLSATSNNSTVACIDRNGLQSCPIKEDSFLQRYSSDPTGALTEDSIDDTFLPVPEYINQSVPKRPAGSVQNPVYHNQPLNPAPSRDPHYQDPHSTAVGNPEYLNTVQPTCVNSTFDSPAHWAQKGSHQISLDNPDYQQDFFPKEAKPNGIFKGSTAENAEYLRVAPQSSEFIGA
T4 sequence (P16234 24-1089 D842V): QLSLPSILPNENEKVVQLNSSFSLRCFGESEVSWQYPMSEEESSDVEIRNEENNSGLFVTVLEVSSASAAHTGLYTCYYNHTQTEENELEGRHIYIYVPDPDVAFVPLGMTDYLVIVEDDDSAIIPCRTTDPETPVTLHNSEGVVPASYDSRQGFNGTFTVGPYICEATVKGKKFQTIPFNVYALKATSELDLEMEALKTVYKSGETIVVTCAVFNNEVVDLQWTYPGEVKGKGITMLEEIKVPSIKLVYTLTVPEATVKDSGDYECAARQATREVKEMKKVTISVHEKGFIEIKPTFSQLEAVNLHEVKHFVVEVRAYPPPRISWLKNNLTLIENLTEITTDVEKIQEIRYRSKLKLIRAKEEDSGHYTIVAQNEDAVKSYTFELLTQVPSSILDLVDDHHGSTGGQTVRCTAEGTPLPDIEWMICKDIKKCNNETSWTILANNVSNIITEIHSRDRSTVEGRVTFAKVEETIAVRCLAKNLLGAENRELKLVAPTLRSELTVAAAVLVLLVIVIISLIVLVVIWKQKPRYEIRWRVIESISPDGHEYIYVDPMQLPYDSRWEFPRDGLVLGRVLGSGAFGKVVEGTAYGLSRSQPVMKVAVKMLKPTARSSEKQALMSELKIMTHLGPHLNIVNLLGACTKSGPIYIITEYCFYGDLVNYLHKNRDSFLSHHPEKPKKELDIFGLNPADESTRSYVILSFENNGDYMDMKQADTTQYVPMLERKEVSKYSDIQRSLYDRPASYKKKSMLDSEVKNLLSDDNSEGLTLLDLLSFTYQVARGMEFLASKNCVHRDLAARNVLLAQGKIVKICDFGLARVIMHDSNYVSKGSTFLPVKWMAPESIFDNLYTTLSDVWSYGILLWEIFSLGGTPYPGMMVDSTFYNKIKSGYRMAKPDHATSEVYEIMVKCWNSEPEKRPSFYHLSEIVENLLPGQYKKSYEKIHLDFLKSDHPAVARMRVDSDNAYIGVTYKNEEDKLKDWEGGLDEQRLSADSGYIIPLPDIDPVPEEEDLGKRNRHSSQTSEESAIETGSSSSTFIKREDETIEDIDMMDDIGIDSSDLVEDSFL
T1 sequence (Q02750 whole entry): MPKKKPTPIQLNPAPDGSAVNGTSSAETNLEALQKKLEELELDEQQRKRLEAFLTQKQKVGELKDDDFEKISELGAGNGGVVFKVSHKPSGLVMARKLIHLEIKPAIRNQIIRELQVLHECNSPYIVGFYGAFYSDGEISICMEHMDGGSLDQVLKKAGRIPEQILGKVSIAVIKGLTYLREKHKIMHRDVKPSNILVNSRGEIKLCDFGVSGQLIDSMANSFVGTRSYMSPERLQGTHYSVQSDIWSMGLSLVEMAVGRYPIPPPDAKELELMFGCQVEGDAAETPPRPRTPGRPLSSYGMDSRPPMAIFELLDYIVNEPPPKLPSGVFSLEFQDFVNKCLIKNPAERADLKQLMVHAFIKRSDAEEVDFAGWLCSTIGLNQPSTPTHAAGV

## COc1cc(OC)c(Cl)c(-c2ccc3c(NC(=O)c4ccc(N5CCNC(C)(C)C5)cc4)n[nH]c3n2)c1Cl [3D185]
MEK1(h); 10 nM
  inhibition at 0.01 µM: 10%
MEK1(h); 100 nM
  inhibition at 0.1 µM: 14%
MEK1(h); 1000 nM
  inhibition at 1 µM: 8%
EGFR(T790M)(h); 10 nM
  inhibition at 0.01 µM: -15%
EGFR(T790M)(h); 100 nM
  inhibition at 0.1 µM: -8%
EGFR(T790M)(h); 1000 nM
  inhibition at 1 µM: 29%
PrKX(h); 10 nM
  inhibition at 0.01 µM: 8%
PrKX(h); 100 nM
  inhibition at 0.1 µM: 11%
PrKX(h); 1000 nM
  inhibition at 1 µM: 5%
PDGFRα(D842V)(h); 10 nM
  inhibition at 0.01 µM: -2%
PDGFRα(D842V)(h); 100 nM
  inhibition at 0.1 µM: 5%
PDGFRα(D842V)(h); 1000 nM
  inhibition at 1 µM: 9%
EphB4(h); 10 nM
  inhibition at 0.01 µM: 8%
EphB4(h); 100 nM
  inhibition at 0.1 µM: -5%
EphB4(h); 1000 nM
  inhibition at 1 µM: 2%
